Experimental data reported in patent US20090191173A1, “Induction Of Neurogenesis And Stem Cell Therapy In Combination With Copolymer 1” (priority 2004, published 2009).

Assays:
APP/PS1 Tg mice [1] = assay: Morris water maze (MWM) in APP/PS1 double-transgenic AD mice; assay type: in vivo, mouse; conditions: GA (TV-5010) s.c. vaccination, tested five weeks after first injection
APP/PS1 Tg mice [2] = assay: Hippocampal immunohistochemistry in APP/PS1 Tg mice (Aβ plaques, microglia, NeuN, BrdU, DCX); assay type: in vivo, mouse
Procedure: (xxii) Glatiramer acetate vaccination. Each mouse was subcutaneously injected five times with a total of 100 μg of glatiramer acetate (GA (TV-5010), MW 13.5-18.5 kDa, average 16 kDa, Teva Pharmaceutical Industries Ltd., Petach Tikva, Israel), emulsified in 200 μl PBS×1, from experimental day 0 until day 24, twice during the first week and once a week thereafter.
(xxiv) Administration of BrdU and tissue preparation. BrdU was dissolved by sonication in PBS and injected i.p. into each mouse (50 mg/kg body weight; 1.25 mg BrdU in 200 μl PBS×1). Starting from experimental day 22 after the first GA vaccination, BrdU was injected i.p. twice daily, every 12 h for 2.5 days, to label proliferating cells. Three weeks after the first BrdU injection the mice were deeply anesthetized and perfused transcardially, first with PBS and then with 4% paraformaldehyde. The whole brain was removed, postfixed overnight, and then equilibrated in phosphate-buffered 30% sucrose. Free-floating 30-μm sections were collected on a freezing microtome (Leica SM2000R) and stored at 4° C. prior to immunohistochemistry.
For immunohistochemistry, tissue sections were treated with a permeabilization/blocking solution containing 10% FCS, 2% bovine serum albumin, 1% glycine, and 0.05% Triton X-100 (Sigma-Aldrich, St. Louis). Tissue sections were stained overnight at 4° C. with specified combinations of the following primary antibodies: rat anti-BrdU (1:200; Oxford Biotechnology, Kidlington, Oxfordshire, UK), goat anti-DCX [doublecortin] (1:400; Santa Cruz Biotechnology), and mouse anti-NeuN [neuronal nuclear protein] (1:200; Chemicon, Temecula, Calif.). Secondary antibodies were FITC-conjugated donkey anti-goat, Cy-3-conjugated donkey anti-mouse, and Cy-3- or Cy-5-conjugated donkey anti-rat (1:200; Jackson ImmunoResearch, West Grove, Pa.). For labeling of microglia we used either CD11b (MAC1; 1:50; BD-Pharmingen) or FITC-conjugated Bandeiraea simplicifolia isolectin B4 (IB4, 1:50; Sigma-Aldrich, Rehovot). To detect expression of cell-surface MHC-II proteins we used anti-MHC-II Abs (rat, clone IBL-5/22; 1:50; Chemicon, Temecula, Calif.). To detect expression of human Aβ we used anti-Aβ (human amino-acid residues 1-17) (mouse, clone 6E10, Chemicon, Temecula, Calif.). Expression of IGF-I was detected by goat anti-IGF-I Abs (1:20; R&D Systems). Expression of TNF-α was detected by goat anti-TNF-α Abs (1:100; R&D Systems). T cells were detected with anti-CD3 polyclonal Abs (rabbit, 1:100; DakoCytomation, Calif.). Propidium iodide (1 μg/ml; Molecular Probes, Invitrogen, Carlsbad, Calif.) was used for nuclear staining.
For in-vivo experiments, the number of Aβ^+ plaques and CD11b^+/IB-4^+ microglia in the hippocampus were counted at 300-μm intervals from 6-8 coronal sections (30 μm) from each mouse. Neurogenesis in the DG was evaluated by counting of premature neurons (DCX^+), proliferating cells (BrdU^+), and newly formed mature neurons (BrdU^+/NeuN^+) in six coronal sections (30 μm) from each mouse. Specificity of BrdU^+/NeuN^+ co-expression was assayed using the confocal microscope (LSM 510) in optical sections at 1-μm intervals/. Cell counts, numbers of Aβ^+ plaques, plaque areas, and intensity of NeuN staining per unit area in the DG were evaluated automatically using Image-Pro Plus 4.5 software (Media Cybernetics).

EAE mice [3] = assay: Clinical manifestations of MOG 35-55-induced EAE; assay type: in vivo; conditions: 5-8 daily s.c. injections 2 mg/mouse; prevention, suppression or delayed suppression
EAE mice [4] = assay: Proliferation, migration and differentiation of neuronal progenitor cells in EAE mice (BrdU, DCX, NeuN); assay type: in vivo, mouse
Procedure: (xxxix) BrdU. 5-Bromo-2′-deoxyuridine (BrdU, Sigma), a thymidine analog incorporating into the DNA of dividing cells, was injected intraperitoneally (50 mg/kg), either concurrently with GA treatment (once each day), or immediately after completion of GA injections (twice each day).
(xli) Immunohistochemistry. […] Control slides were incubated with secondary antibody alone.
(xliii) Quantification. […] Quantification was performed in coronal sections, in the SVZ starting at the level of the medial septum and 640 μm backward, and in the hippocampal DG (in both blades for BrdU/DCX or in the upper blade for DCX) through its septotemporal axis. Quantification in the RMS was done on sagital sections starting at 1 mm from the median line of the brain and 640 μm laterally. The Results for each brain structure were averaged from 8 unilateral levels per mouse (80 μm apart, 3-4 mice in each treatment group) and are expressed as change fold from naive controls. Quantification of BrdU/NeuN double positive cells in the cortex was performed in areas of 0.15 mm^2, selected at random (10 sections counted/mouse, 3 mice in each treatment group).
(xliv) Statistical analysis. For BrdU and DCX analysis, the mean±SEM (averaged from 8 unilateral levels per mouse, 3-4 mice in each treatment group) was subjected to one-way analysis of variance (ANOVA), followed by Fishers' least significant difference (LSD) at comparison-wise error rate of 0.05, where appropriate. Since control values for BrdU incorporation were reduced as a function of time, results were expressed as change fold from naive controls injected concurrently with BrdU. The number of BrdU/NeuN double-positive cells in the cortex was averaged from 10 sections per mouse (3 mice in each treatment group) and expressed as cells per mm^3.

EAE mice [5] = system: EAE mice
Procedure: GA treatment was applied by 5-8 consecutive daily subcutaneous injections (2 mg/mouse) in different stages of disease [i.e., (1) starting immediately after EAE induction (prevention treatment), (2) starting after appearance of disease manifestations at day 20 (suppression treatment), or (3) starting during the chronic phase 45 days after induction (delayed suppression).
(xl) Perfusion. Animals were deeply anesthetized with Nembutal and perfused transcardially with 2.5% paraformaldehyde. Brains were removed, postfixed in 1% paraformaldehyde and cryoprotected with 15% sucrose solution in PBS. Free-floating sections (16 μm thick) were cut coronally or sagitaly with a sliding microtome (Leica SM 2000r) through the entire brain and collected serially in PBS.
(xli) Immunohistochemistry. To detect BrdU-incorporated cells, sections were denatured in 2M HCl in PBS at 37° C. for 30 min and then neutralized with 0.1M borate buffer (pH 8.5) for 10 min at room temperature. To detect specific cell types, sections were pre-incubated in PBS solution containing 20% serum and 0.5% Triton-X-100 for 1 h, and then incubated overnight at room temperature with primary antibodies. The following primary antibodies were used: goat anti-doublecortin (DCX) C-18 (1:200, Santa Cruz Biotechnology, Santa Cruz, Calif.), mouse anti-NeuN (1:300, Chemicon, Temecula, Calif.), mouse anti-GFAP (1:100, Pharmingen, San Jose, Calif.), rabbit anti-phospho-histone (1:200, Upstate Biotechnology, Charlottesville, Va.), rat anti-BrdU (1:200, Harlan, Indianapolis, Ind.), rat anti-CD11b (1:50, Pharmingen) and chicken anti-BDNF (1:50, Promega, Madison, Wis.). […]
(xlii) Microscopy. Stained sections were examined and photographed by a confocal microscope (Axiovert 100M; Zeiss, Oberkochen, Germany), or by a fluorescence microscope (E600; Nikon, Tokyo, Japan), equipped with Plan Fluor objectives connected to CCD camera (DMX1200F, Nikon). Digital images were collected and analyzed using Image Pro+software. […]

[6] = GA vaccinated vs untreated Tg mice
[7] = EAE+GA mice, one month after completion of GA treatment

## glatiramer acetate [GA]
APP/PS1 Tg mice [1]
  MWM performance (spatial learning/memory): superior to that of the untreated Tg mice
APP/PS1 Tg mice [2]; GA (TV-5010) vaccinated vs untreated Tg mice, 6 weeks later
  number of Aβ plaques: significantly fewer plaques
APP/PS1 Tg mice [2]; [6]
  BrdU+ cells in the dentate gyrus: significantly more BrdU^+ cells
  CD11b+ microglia: significantly fewer CD11b^+ microglia
  area occupied by the plaques: significantly smaller
  staining for NeuN: significantly more intense staining for NeuN
APP/PS1 Tg mice [2]; GA-vaccinated Tg mice
  MHC-II expression by microglia: most of the microglia adjacent to residual Aβ^+ plaques expressed MHC-II
APP/PS1 Tg mice [2]; relative to non-Tg littermates
  DCX+ cells in the DG: slightly but significantly more
EAE mice [3]
  clinical manifestations of EAE: ameliorated the clinical manifestations of EAE regardless of the stage in which it was administered
EAE mice [4]; EAE mice treated with GA
  migration of neuronal progenitors outside the RMS: migration into a region corresponding to the lateral cortical stream (LCS)
EAE mice [4]; EAE+GA mice
  neuronal proliferation in the hippocampus (BrdU incorporation, DCX expression): increased proliferation
EAE mice [4]; EAE+GA mice, nucleus accumbens and hippocampus
  BDNF expression by migrating DCX+ cells: manifested extensive expression of BDNF
EAE mice [4]; [7]
  BrdU+/NeuN+ cells as share of all NeuN+ cells in the cortex: 1.3%
  BrdU+/NeuN+ double-labeled cells in the cortex: 128±46 /mm^3
EAE mice [4]; EAE+GA vs EAE mice
  progenitors migrating to lesions: much higher
EAE mice [4]; EAE+GA vs untreated EAE mice and controls
  neuronal proliferation in the SVZ: augmented neuronal proliferation in the SVZ
EAE mice [4]; GA injection to naive mice (without EAE)
  BrdU or DCX expression in SVZ and DG: did not result in significant elevation
EAE mice [4]; GA on days 20-25 (suppression)
  BrdU expression in the RMS, increase over EAE mice: 2.2 fold
  BrdU expression in the RMS, increase over control: 7.8 fold
  DCX expression in the RMS, increase over EAE mice: 1.6 fold
  DCX expression in the RMS, increase over control: 2.6 fold
EAE mice [4]; injection of GA alone (no EAE)
  mobilization of progenitors into the RMS: enhanced mobilization of progenitors into the RMS, but to a lower extent
EAE mice [4]; one month after completion of GA treatment
  increase of new neurons in the cortex over EAE mice: 2.6 fold
EAE mice [4]; prevention treatment
  DCX expression in the SVZ, elevation over EAE and control: 4 fold
EAE mice [5]; EAE+GA vs EAE mice
  MAC-1 expression (microglial activation): significantly reduced
EAE mice [5]; EAE+GA vs EAE mice, prevention or suppression treatment
  neuronal damage in brain: considerably less damage
EAE mice [5]; mouse, in vivo
  neuronal malformations or perivascular infiltrations: did not find neuronal malformations or perivascular infiltrations
